Experimental data: publication PMC6272684, “Synthesis, Antiproliferative and Antifungal Activities of 1,2,3-Triazole-Substituted Carnosic Acid and Carnosol Derivatives” (Molecules, 2015)
“And” between values parts separate entries of the source, which are not always exact repeats. Equal entries are not always repeated.

Tests used:
[1] = test system: C. neoformans ATCC 32264; experiment: Antifungal broth microdilution (CLSI M27-A3), growth inhibition; format: cell-based, Cryptococcus neoformans; conditions: for MIC50 (minimum concentration to inhibit 50% of fungal growth), C. neoformans: C. neoformans ATCC 32264
Experimental: (§1) The antifungal properties of compounds 1–24 against two clinical important fungal species, C. albicans ATCC 10231 and C. neoformans ATCC 32264 were investigated. Results were expressed as the percentages of inhibition of each fungus in the range 250–3.9 μg∙mL^−1 by using the standardized microbroth dilution method M-27A3 of Clinical and Laboratory Standards Institute which assures reliable and reproducible results.
(§2) For the antifungal evaluation, standardized strains from the American Type Culture Collection (ATCC), Rockville, MD, USA, were used. The microorganisms included yeasts (Candida albicans ATCC 10231 and Cryptococcus neoformans ATCC 32264). Strains were grown on Sabouraud-chloramphenicol agar slants for 48 h at 30 °C, maintained on slopes of Sabouraud-dextrose agar (SDA, Oxoid), and subcultured every 15 days to prevent pleomorphic transformations. Inocula of cell or spore suspensions were obtained according to reported procedures and adjusted to 1–5 × 10^3 cells/spores with colony forming units (CFU)/mL [29].
(§3) Broth microdilution techniques were performed in 96-well microplates according to the Clinical and Laboratory Standards Institute Reference Method for Broth Dilution Antifungal Susceptibility Testing of Yeasts, Approved Standard M27-A3 [29]. For the assay, compound test wells (CTWs) were prepared with stock solutions of each compound in DMSO (maximum concentration ≤1%), diluted with RPMI-1640, to final concentrations of 250–3.9 μg∙mL^−1. An inoculum suspension (100 μL) was added to each well (final volume in the well = 200 μL). A growth control well (GCW) (containing medium, inoculum, and the same amount of DMSO used in a CTW, but compound-free) and a sterility control well (SCW) (sample, medium, and sterile water instead of inoculum) were included for each fungus tested. Microtiter trays were incubated in a moist, dark chamber at 30 °C for 48 h for both yeasts. Microplates were read in a VERSA Max microplate reader (Molecular Devices, Sunnyvale, CA, USA). Amphotericin B (Sigma-Aldrich) was used as positive control. Tests were performed in triplicate. Reduction of growth for each compound concentration was calculated as follows: % of inhibition = 100 − (OD 405 CTW − OD 405 SCW)/(OD 405 GCW − OD 405 SCW). The means ± SEM were the results of triplicate tests. Three endpoints were defined from the assay explained above and the dose-response curves. Minimum Inhibitory concentration (MIC) resulting in total fungal growth inhibition was named MIC100 while MIC50 was defined as the minimum concentration that inhibits 50% of the fungal growth.

[2] = test system: gastric epithelial adenocarcinoma (AGS) cells; experiment: Antiproliferative assay (MTT reduction, 3 days); format: cell-based, human; conditions: >100 µM considered inactive, read-out: IC50 ± SD, AGS
Experimental: The antiproliferative activity towards the following human cell lines was determined: normal lung fibroblasts (MRC-5), gastric epithelial adenocarcinoma (AGS), lung cancer (SK-MES-1) and bladder carcinoma (J82) cells. […] When comparing the pairs 3–4, 5–6 and 7–8 differing in one CH2 unit in the linker, the activity decreased with linker length.
All human cell lines used in this work were purchased from the American Type Culture Collection (ATCC, Manasas, VA, USA). Normal lung MRC-5 fibroblasts (CCL-171), SK-MES-1 lung cancer cells (HTB-58) and J82 bladder carcinoma cells (HTB-1) were grown as monolayers in minimum essential Eagle medium (MEM) with Earles’s salts, 2 mM L-glutamine and 1.5 g∙L^−1 sodium bicarbonate. Gastric adenocarcinoma AGS cells (CRL-1739) were grown as monolayers in Ham F-12 medium containing 1 mM L-glutamine and 1.5 g∙L^−1 sodium bicarbonate. All media were supplemented with 10% heat-inactivated FBS, 100 IU∙mL^−1 penicillin and 100 µg∙mL^−1 streptomycin. Cells were grown in a humidified incubator with 5% CO2 in air at 37 °C. For the antiproliferative assay, cells were plated at a density of 5 × 10^4 cells∙mL^−1. Cells were seeded in 96-well plates (100 µL∙well^−1). One day after seeding, cells were treated with medium containing the compounds at concentrations ranging from 0 up to 100 µM during 3 days. The compounds were dissolved in DMSO (1% final concentration) and complete medium. Untreated cells (medium containing 1% DMSO) were used as 100% viability controls. […] Each concentration was tested in sextuplicate and experiments were repeated 2 times. Cell viability was determined by means of the MTT reduction assay at the end of the incubation with the products. The results were transformed to percentage of controls and the IC50 value was obtained adjusting the dose-response curve to a sigmoidal model. The software used was OriginPro 8.1 [30].

[3] = test system: C. albicans ATCC 10231; experiment: Antifungal broth microdilution (CLSI M27-A3), growth inhibition; format: cell-based, Candida albicans; conditions: for MIC50 (minimum concentration to inhibit 50% of fungal growth), C. albicans: C. albicans ATCC 10231
Experimental: as §1, §2, §3

Compound | Inhibition percentage against C. neoformans ATCC 32264 ([1]; 3.9 μg∙mL^−1, 48 h) [%] | Inhibition percentage against C. neoformans ATCC 32264 ([1]; 7.8 μg∙mL^−1, 48 h) [%] | Inhibition percentage against C. neoformans ATCC 32264 ([1]; 15.6 μg∙mL^−1, 48 h) [%] | Inhibition percentage against C. neoformans ATCC 32264 ([1]; 31.2 μg∙mL^−1, 48 h) [%] | Inhibition percentage against C. neoformans ATCC 32264 ([1]; 62.5 μg∙mL^−1, 48 h) [%] | Inhibition percentage against C. neoformans ATCC 32264 ([1]; 125 μg∙mL^−1, 48 h) [%] | MIC50 (minimum concentration to inhibit 50% of fungal growth), C. neoformans [1] [µg/mL] | IC50 [2] [µM] | Inhibition percentage against C. albicans ATCC 10231 ([3]; 3.9 μg∙mL^−1, 48 h) [%] | Inhibition percentage against C. albicans ATCC 10231 ([3]; 7.8 μg∙mL^−1, 48 h) [%] | Inhibition percentage against C. albicans ATCC 10231 ([3]; 15.6 μg∙mL^−1, 48 h) [%] | Inhibition percentage against C. albicans ATCC 10231 ([3]; 62.5 μg∙mL^−1, 48 h) [%] | Inhibition percentage against C. albicans ATCC 10231 ([3]; 125 μg∙mL^−1, 48 h) [%] | Inhibition percentage against C. albicans ATCC 10231 ([3]; 250 μg∙mL^−1, 48 h) [%] | Inhibition percentage against C. albicans ATCC 10231 ([3]; 31. μg∙mL^−1, 48 h) [%] | MIC50 (minimum concentration to inhibit 50% of fungal growth), C. albicans [3] [µg/mL] | Inhibition percentage against C. neoformans ATCC 32264 ([1]; 250 μg∙mL^−1, 48 h)
CC(C)c1cc2c(c(OC(=O)CCc3cn(Cc4ccc([N+](=O)[O-])cc4)nn3)c1OC(=O)CCc1cn(Cc3ccc([N+](=O)[O-])cc3)nn1)C13CCCC(C)(C)C1CC2OC3=O (stereo not drawn) [Compound 23, (7β)-11,12-O-(3-(1-(4-nitrobenzyl)-1H-1,2,3-triazol-4-yl)-propanoyloxy)-7,20-epoxyabieta-8,11,13-trien-20-one] | 6.0 ± 0.1 | 11.5 ± 1.5 | 16.2 ± 0.2 | 18.1 ± 0.4 | 32.6 ± 0.8 | 37.7 ± 0.7 | 250 | 99.4 | 0.0 | 1.6 ± 0.8 | 3.3 ± 0.6 | 6.7 ± 1.6 | 17.6 ± 1.4 | 25.5 ± 2.5 | 6.0 ± 0.5 | >250 | –
CC(C)c1cc2c(c(OC(=O)CCCc3cn(Cc4ccccc4)nn3)c1OC(=O)CCCc1cn(Cc3ccccc3)nn1)C13CCCC(C)(C)C1CC2OC3=O (stereo not drawn) [Compound 20, (7β)-11,12-O-(4-(1-benzyl-1H-1,2,3-triazol-4-yl)-butanoyloxy)-7,20-epoxyabieta-8,11,13-trien-20-one] | 0.0 | 0.0 | 0.0 | 2.7 ± 2.7 | 10.4 ± 0.2 | 14.5 ± 1.2 | >250 | – | 0.7 ± 0.1 | 1.6 ± 0.2 | 3.0 ± 0.4 | 10.9 ± 1.6 | 21.4 ± 3.4 | 34.5 ± 0.5 | 4.3 ± 0.4 | >250 | 22.0 ± 1.0%
COC(=O)C12CCCC(C)(C)C1CCc1cc(C(C)C)c(OC(=O)CCCc3cn(CSc4ccccc4)nn3)c(OC(=O)CCCc3cn(CSc4ccccc4)nn3)c12 (centres unmarked) [Compound 10, Methyl(11,12-O-(4-(((1-phenylthio)methyl)-1H-1,2,3-triazol-4-yl)-butanoyloxy)-abieta-8,11,13-triene)-20-oate] | 0.0 | 11.3 ± 0.5 | 14.4 ± 0.8 | 18.6 ± 1.5 | 19.1 ± 1.8 | 42.9 ± 2.0 | 250 | – | 1.3 ± 1.3 | 2.8 ± 0.1 | 3.9 ± 0.9 | 10.1 ± 0.9 | 18.8 ± 0.4 | 35.0 ± 0.8 | 5.1 ± 1.3 | >250 | 63.9 ± 2.9%
CC(C)c1cc2c(c(OC(=O)CCCc3cn(CSc4ccccc4)nn3)c1OC(=O)CCCc1cn(CSc3ccccc3)nn1)C13CCCC(C)(C)C1CC2OC3=O (stereo not drawn) [Compound 18, (7β)-11,12-O-(4-(((1-phenylthio)methyl)-1H-1,2,3-triazol-4-yl)-butanoyloxy)-7,20-epoxyabieta-8,11,13-trien-20-one] | 0.0 | 0.0 | 0.0 | 0.0 | 0.0 | 11.8 ± 0.6 | >250 | – | 1.0 ± 0.1 | 2.5 ± 0.2 | 2.8 ± 1.0 | 18.3 ± 0.1 | 35.4 ± 2.1 | 57.9 ± 1.0 | 11.5 ± 1.8 | 250 | 44.3 ± 1.9%
COC(=O)C12CCCC(C)(C)C1CCc1cc(C(C)C)c(OC(=O)CCCc3cn(Cc4ccc(Br)cc4)nn3)c(OC(=O)CCCc3cn(Cc4ccc(Br)cc4)nn3)c12 (centres unmarked) [Compound 14, Methyl(11,12-O-(4-(1-(4-bromobenzyl)-1H-1,2,3-triazol-4-yl)-butanoyloxy)-abieta-8,11,13-triene)-20-oate] | 0.0 | 4.5 ± 0.2 | 10.1 ± 1.0 | 12.0 ± 1.2 | 16.9 ± 1.1 | 30.1 ± 1.4 | 250 | – | 1.3 ± 0.2 | 1.3 ± 0.3 | 1.9 ± 0.3 | 9.3 ± 1.5 | 13.3 ± 0.6 | 29.1 ± 2.5 | 6.3 ± 1.5 | >250 | 57.2%–67.4% and 67.4 ± 1.7%
